Assay results from US20240150375A1, “MACROCYCLIC COMPOUNDS AND USES THEREOF” (Theseus Pharmaceuticals, Inc., priority 2021, published 2024).

Experiments:
[1] = target: EGFR^L858R/T790M (Homo sapiens, UniProt P00533, L858R/T790M); assay: HTRF KinEASE-TK in vitro kinase assay, EGFR L858R/T790M (LT); assay type: biochemical; conditions: EGFR L858R/T790M kinase inhibition
From the text: (§1) The biological activity of compounds described herein can be studied according to standard methods known in the art. Methods can be used to study inhibition of EGFR, including mutant forms of EGFR comprising L858R, T790M, C797S, and/or Del19 mutations, or any combination thereof (e.g., L858R single, double, or triple mutants). Exemplary, non-limiting methods are described herein.
(§2) Assays using an in vitro kinase assay kit (HTRF KinEASE-TK kit) can be used to study the inhibitory activity of compounds described herein with respect to EGFR mutants such as ECFR^L858R, EGFR^L858R/T790M, and EGFR^L858R/T790M/C797S.
(§3) One hundred thirty six compounds were studied using the kinase (EGFR) and BA/F3 assays described herein, with more than 60% of the tested compounds providing IC50<50 nM values in all six assays. Accordingly, compounds of the invention are a new general class of kinase inhibitors, including potent inhibitors of EGFR mutants.
(§4) Exemplary kinase inhibition (Kinase) and anti-proliferation activity (Ba/F3) data are shown in Table 1 for certain compounds of the invention and are categorized according to the below legend.

[2] = target: Ba/F3 EGFR-Del19/C797S (Homo sapiens, UniProt P00533, C797S, cells depend on it, form not given); assay: Ba/F3 viability assay (CellTiter-Glo), EGFR-Del19/C797S (DC); assay type: cell-based; conditions: Ba/F3 EGFR-Del19/C797S anti-proliferation; read-out: BAF3 DC IC50
Ba/F3 EGFR-Del19/C797S, sequence (P00533 with tags, fused parts or gaps DEL746-750/C797S, form open): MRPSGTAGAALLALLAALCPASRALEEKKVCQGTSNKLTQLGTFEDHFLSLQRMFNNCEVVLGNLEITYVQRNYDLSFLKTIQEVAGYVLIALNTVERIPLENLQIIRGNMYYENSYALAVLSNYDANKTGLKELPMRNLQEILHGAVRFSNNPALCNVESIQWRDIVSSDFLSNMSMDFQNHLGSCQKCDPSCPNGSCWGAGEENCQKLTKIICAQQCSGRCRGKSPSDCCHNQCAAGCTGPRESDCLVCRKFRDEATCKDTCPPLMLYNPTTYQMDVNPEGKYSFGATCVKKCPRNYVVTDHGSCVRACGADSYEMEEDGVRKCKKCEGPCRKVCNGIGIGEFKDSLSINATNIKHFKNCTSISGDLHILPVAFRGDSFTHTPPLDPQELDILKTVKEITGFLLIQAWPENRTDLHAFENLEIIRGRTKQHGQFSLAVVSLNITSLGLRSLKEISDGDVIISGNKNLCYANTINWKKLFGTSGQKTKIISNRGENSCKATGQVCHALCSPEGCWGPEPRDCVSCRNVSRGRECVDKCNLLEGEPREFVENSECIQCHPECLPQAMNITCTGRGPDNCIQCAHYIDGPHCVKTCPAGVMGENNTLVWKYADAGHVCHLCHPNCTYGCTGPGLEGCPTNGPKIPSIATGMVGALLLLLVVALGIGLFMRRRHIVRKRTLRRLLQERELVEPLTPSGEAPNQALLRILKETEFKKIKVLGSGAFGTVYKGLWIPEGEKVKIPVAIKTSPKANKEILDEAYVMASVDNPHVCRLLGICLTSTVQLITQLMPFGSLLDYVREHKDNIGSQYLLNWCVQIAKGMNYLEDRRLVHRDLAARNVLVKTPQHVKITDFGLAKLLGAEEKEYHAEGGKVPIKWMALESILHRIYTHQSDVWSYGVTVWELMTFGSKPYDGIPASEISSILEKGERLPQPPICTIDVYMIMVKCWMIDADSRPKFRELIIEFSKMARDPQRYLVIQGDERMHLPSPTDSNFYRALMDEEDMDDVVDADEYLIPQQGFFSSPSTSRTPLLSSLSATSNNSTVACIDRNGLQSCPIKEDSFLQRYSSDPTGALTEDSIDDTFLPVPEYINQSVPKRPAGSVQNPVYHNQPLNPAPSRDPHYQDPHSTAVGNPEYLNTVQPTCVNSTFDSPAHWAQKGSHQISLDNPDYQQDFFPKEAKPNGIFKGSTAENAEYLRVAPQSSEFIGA
From the text: (§5) Inhibition of cell proliferation can be studied using Ba/F3 viability assays, including the Promega CellTiter-Glo cell viability assay. This assay can be used to study the effect of compounds described herein in the following assays: (1) Ba/F3 Parental; (2) Ba/F3 EGFR-Del19/T790M; (3); Ba/F3 EGFR-Del19/C797S; and (4) Ba/F3 EGFR-Del119/T790M/C797S.
as §3, §4

[3] = target: Ba/F3 EGFR-Del19/T790M/C797S (Homo sapiens, UniProt P00533, T790M/C797S, cells depend on it, form not given); assay: Ba/F3 viability assay (CellTiter-Glo), EGFR-Del19/T790M/C797S (DTC); assay type: cell-based; conditions: Ba/F3 EGFR-Del19/T790M/C797S anti-proliferation; read-out: BAF3 DTC IC50
Ba/F3 EGFR-Del19/T790M/C797S, sequence (P00533 with tags, fused parts or gaps DEL746-750/T790M/C797S, form open): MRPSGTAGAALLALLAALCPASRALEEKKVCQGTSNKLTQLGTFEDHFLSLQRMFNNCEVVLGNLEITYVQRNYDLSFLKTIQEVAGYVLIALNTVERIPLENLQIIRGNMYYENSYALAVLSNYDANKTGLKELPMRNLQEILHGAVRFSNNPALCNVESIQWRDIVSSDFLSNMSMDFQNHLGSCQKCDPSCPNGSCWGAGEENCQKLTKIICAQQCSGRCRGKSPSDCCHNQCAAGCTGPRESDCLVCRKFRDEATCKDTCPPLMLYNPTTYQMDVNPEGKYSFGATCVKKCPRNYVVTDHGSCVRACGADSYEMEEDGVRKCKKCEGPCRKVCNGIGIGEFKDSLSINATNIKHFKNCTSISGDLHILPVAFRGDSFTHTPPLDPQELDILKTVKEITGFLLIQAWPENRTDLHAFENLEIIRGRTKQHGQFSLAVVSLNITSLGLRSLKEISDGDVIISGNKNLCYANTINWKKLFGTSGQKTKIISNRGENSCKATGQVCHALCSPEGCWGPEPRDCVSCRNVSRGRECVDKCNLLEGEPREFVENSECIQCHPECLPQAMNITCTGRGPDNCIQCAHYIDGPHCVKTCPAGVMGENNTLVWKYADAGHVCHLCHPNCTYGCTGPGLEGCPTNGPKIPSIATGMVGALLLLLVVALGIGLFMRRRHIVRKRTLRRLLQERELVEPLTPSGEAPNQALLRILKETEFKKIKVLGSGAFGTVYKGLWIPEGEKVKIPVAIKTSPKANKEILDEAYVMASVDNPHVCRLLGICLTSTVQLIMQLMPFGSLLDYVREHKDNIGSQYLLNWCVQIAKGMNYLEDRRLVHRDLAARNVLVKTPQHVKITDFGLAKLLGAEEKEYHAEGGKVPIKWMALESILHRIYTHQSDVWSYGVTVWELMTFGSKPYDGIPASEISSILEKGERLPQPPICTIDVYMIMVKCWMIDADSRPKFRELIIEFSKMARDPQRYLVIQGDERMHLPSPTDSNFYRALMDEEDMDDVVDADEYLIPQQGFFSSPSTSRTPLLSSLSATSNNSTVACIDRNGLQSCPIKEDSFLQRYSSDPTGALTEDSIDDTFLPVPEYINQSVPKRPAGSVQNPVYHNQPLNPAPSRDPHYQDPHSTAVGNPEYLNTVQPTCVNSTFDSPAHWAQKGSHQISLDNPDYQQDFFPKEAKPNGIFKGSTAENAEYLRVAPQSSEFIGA
From the text: as §5, §3, §4

[4] = target: Ba/F3 EGFR-Del19/T790M (Homo sapiens, UniProt P00533, T790M, cells depend on it, form not given); assay: Ba/F3 viability assay (CellTiter-Glo), EGFR-Del19/T790M (DT); assay type: cell-based; conditions: Ba/F3 EGFR-Del19/T790M anti-proliferation; read-out: BAF3 DT IC50
Ba/F3 EGFR-Del19/T790M, sequence (P00533 with tags, fused parts or gaps DEL746-750/T790M, form open): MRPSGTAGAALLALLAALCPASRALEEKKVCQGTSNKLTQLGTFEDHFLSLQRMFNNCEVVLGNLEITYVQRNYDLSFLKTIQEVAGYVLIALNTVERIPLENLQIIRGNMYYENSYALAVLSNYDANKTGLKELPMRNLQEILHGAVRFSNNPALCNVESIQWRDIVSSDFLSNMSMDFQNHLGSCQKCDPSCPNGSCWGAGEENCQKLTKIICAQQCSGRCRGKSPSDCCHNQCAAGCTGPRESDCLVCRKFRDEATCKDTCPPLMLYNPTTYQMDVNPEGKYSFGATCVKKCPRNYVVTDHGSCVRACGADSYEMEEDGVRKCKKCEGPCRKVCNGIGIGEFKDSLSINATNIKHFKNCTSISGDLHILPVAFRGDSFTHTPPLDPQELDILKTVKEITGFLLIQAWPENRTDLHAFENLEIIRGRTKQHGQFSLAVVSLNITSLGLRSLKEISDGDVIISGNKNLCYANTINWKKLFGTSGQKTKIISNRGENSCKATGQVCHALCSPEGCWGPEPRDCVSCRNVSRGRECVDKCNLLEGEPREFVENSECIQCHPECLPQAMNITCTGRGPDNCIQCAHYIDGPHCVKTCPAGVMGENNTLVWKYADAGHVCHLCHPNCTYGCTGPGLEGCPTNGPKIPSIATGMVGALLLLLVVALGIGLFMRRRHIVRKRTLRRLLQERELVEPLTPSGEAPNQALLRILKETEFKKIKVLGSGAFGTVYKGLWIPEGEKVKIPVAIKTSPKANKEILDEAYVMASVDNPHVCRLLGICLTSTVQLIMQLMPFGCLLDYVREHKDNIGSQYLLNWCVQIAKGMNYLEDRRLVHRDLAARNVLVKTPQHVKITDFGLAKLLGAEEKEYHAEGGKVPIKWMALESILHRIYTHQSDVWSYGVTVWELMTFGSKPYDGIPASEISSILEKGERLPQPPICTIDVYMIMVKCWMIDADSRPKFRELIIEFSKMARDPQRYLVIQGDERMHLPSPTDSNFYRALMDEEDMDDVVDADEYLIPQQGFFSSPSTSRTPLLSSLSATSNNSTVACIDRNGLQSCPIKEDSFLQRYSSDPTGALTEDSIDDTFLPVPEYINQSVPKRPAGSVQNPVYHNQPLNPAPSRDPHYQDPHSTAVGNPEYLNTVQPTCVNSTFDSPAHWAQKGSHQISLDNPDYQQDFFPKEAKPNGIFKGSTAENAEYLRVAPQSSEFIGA
From the text: as §5, §3, §4

[5] = target: EGFR^L858R/T790M/C797S (Homo sapiens, UniProt P00533, C797S/L858R/T790M); assay: HTRF KinEASE-TK in vitro kinase assay, EGFR L858R/T790M/C797S (LTC); assay type: biochemical; conditions: EGFR L858R/T790M/C797S kinase inhibition
From the text: as §1, §2, §3, §4

[6] = target: EGFR^L858R (Homo sapiens, UniProt P00533, L858R); assay: HTRF KinEASE-TK in vitro kinase assay, EGFR L858R (L); assay type: biochemical; conditions: EGFR L858R kinase inhibition
From the text: as §1, §2, §3, §4

EGFR^L858R/T790M, sequence (P00533 25-1210 T790M/L858R): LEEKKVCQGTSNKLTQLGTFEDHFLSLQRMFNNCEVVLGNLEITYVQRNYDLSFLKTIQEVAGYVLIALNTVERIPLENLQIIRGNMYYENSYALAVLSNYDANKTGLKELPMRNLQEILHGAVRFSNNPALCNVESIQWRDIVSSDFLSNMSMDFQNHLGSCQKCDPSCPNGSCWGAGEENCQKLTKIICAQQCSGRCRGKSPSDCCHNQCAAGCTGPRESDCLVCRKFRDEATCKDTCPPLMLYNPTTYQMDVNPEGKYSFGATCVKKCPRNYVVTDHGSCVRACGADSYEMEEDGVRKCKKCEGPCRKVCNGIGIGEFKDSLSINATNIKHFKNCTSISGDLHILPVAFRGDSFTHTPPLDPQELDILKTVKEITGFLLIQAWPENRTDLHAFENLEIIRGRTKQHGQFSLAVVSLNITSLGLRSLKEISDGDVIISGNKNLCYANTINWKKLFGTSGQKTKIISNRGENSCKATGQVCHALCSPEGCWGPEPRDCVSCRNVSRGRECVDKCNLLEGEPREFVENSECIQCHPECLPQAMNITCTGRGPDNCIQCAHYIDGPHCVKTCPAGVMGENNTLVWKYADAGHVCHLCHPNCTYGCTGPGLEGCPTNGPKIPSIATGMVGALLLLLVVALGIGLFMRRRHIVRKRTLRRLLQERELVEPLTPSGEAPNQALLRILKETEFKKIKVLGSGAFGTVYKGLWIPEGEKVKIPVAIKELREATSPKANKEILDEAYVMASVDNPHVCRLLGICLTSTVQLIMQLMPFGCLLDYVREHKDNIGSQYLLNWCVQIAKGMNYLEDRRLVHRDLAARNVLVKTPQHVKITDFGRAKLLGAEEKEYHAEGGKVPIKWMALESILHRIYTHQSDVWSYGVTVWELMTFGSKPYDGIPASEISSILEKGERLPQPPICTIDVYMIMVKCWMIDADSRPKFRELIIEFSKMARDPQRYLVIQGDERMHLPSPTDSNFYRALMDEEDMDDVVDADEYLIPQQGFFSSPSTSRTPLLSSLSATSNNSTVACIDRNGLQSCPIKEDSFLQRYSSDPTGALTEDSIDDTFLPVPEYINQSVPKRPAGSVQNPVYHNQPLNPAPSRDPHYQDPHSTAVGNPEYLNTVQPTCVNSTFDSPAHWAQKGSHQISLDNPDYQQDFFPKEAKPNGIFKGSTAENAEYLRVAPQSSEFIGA

Compound: C[C@H]1CCOc2c(cnn2C)-c2nccc(n2)Nc2cc(c(-c3ccc4c(ccn4C)c3)cn2)O1 [(75)]
- IC50 [1]: < 50 nM
- GI50 [2]: 100 to 1000 nM
- GI50 [3]: < 50 nM
- GI50 [4]: 50 to 100 nM
- IC50 [5]: < 50 nM
- IC50 [6]: 50 to 100 nM

Compound: C[C@H]1CCOc2c(cnn2C)-c2nccc(n2)Nc2cc(c(-c3cnc(N4CCN(C)CC4)n3C)cn2)O1 [(77)]
- IC50 [1]: < 50 nM
- GI50 [2]: 100 to 1000 nM
- GI50 [3]: < 50 nM
- GI50 [4]: 50 to 100 nM
- IC50 [5]: < 50 nM
- IC50 [6]: < 50 nM

Compound: Cc1c(-c2cnc3cc2O[C@@H](C)CCOc2c(cnn2C)-c2nccc(n2)N3)cnn1C1CCN(CCCF)CC1 [(84)]
- IC50 [1]: < 50 nM
- GI50 [2]: < 50 nM
- GI50 [3]: < 50 nM
- GI50 [4]: < 50 nM
- IC50 [5]: < 50 nM
- IC50 [6]: < 50 nM

Compound: Cc1nn(C2CCN(CCF)CC2)cc1-c1cnc2cc1O[C@@H](C)CCOc1c(cnn1C)-c1nccc(n1)N2 [(85)]
- IC50 [1]: < 50 nM
- GI50 [2]: < 50 nM
- GI50 [3]: < 50 nM
- GI50 [4]: < 50 nM
- IC50 [5]: < 50 nM
- IC50 [6]: < 50 nM

Compound: C[C@H]1CCOc2c(cnn2C)-c2nccc(n2)Nc2cc(c(-c3ccnn3CCN3CCOCC3)cn2)O1 [(89)]
- IC50 [1]: < 50 nM
- GI50 [2]: ≥ 1000 nM
- GI50 [3]: ≥ 1000 nM
- GI50 [4]: ≥ 1000 nM
- IC50 [5]: 100 to 1000 nM
- IC50 [6]: ≥ 1000 nM

Compound: C[C@H]1CCOc2c(cnn2C)-c2nccc(n2)Nc2cc(c(-c3ncc(CN4CCN(C)CC4)s3)cn2)O1 [(92)]
- IC50 [1]: < 50 nM
- GI50 [2]: < 50 nM
- GI50 [3]: < 50 nM
- GI50 [4]: < 50 nM
- IC50 [5]: < 50 nM
- IC50 [6]: < 50 nM

Compound: C[C@H]1CCOc2c(cnn2C)-c2nccc(n2)Nc2cc(c(-c3ccc(CN4CCN(C)CC4)n3C)cn2)O1 [(103)]
- IC50 [1]: < 50 nM
- GI50 [2]: 100 to 1000 nM
- GI50 [3]: 100 to 1000 nM
- GI50 [4]: 100 to 1000 nM
- IC50 [5]: < 50 nM
- IC50 [6]: 100 to 1000 nM

Compound: C[C@H]1CCOc2c(cnn2C)-c2nccc(n2)Nc2cc(c(-c3ncc(CN4CCOCC4)s3)cn2)O1 [(115)]
- IC50 [1]: < 50 nM
- GI50 [2]: < 50 nM
- GI50 [3]: < 50 nM
- GI50 [4]: < 50 nM
- IC50 [5]: < 50 nM
- IC50 [6]: < 50 nM

Compound: C[C@H]1CCOc2c(cnn2C)-c2nccc(n2)Nc2cc(c(-c3cnn(CCCN(C)C)c3)cn2)O1 [(123)]
- IC50 [1]: < 50 nM
- GI50 [2]: < 50 nM
- GI50 [3]: < 50 nM
- GI50 [4]: < 50 nM
- IC50 [5]: < 50 nM
- IC50 [6]: < 50 nM

Compound: C[C@H]1CCOc2c(cnn2C)-c2nccc(n2)Nc2cc(c(-c3ccc(CN4CCOCC4)cc3)cn2)O1 [(124)]
- IC50 [1]: < 50 nM
- GI50 [2]: < 50 nM
- GI50 [3]: < 50 nM
- GI50 [4]: < 50 nM
- IC50 [5]: < 50 nM
- IC50 [6]: < 50 nM

Compound: C[C@H]1CCOc2c(cnn2C)-c2nccc(n2)Nc2cc(c(-c3cc(CN4CCN(C)CC4)n(C)c3)cn2)O1 [(127), (10S)-5,10-dimethyl-13-[1-methyl-5-[(4-methylpiperazin-1-yl)methyl]pyrrol-3-yl]-7,11-dioxa-4,5,15,17,21,22-hexazatetracyclo[16.3.1.1^12,16.0^2,6]tricosa-1(22),2(6),3,12(23),13,15,18,20-octaene]
- IC50 [1]: < 50 nM
- GI50 [2]: < 50 nM
- GI50 [3]: < 50 nM
- GI50 [4]: < 50 nM
- IC50 [5]: < 50 nM
- IC50 [6]: < 50 nM

Compound: C[C@H]1CCOc2c(cnn2C)-c2nccc(n2)Nc2cc(c(-c3cnc(N4CCN(C)CC4)c(OCC(F)(F)F)c3)cn2)O1 [(128)]
- IC50 [1]: < 50 nM
- GI50 [2]: 50 to 100 nM
- GI50 [3]: < 50 nM
- GI50 [4]: 50 to 100 nM
- IC50 [5]: < 50 nM
- IC50 [6]: < 50 nM

Compound: C[C@H]1CCOc2c(cnn2C)-c2nccc(n2)Nc2cc(c(-c3ccc(N(C)CCN(C)C)cc3)cn2)O1 [(133)]
- IC50 [1]: < 50 nM
- GI50 [2]: < 50 nM
- GI50 [3]: < 50 nM
- GI50 [4]: < 50 nM
- IC50 [5]: < 50 nM
- IC50 [6]: < 50 nM

Compound: COc1cc(-c2cnc3cc2O[C@@H](C)CCOc2c(cnn2C)-c2nccc(n2)N3)cnc1N1CCN(C)CC1 [(137)]
- IC50 [1]: < 50 nM
- GI50 [2]: < 50 nM
- GI50 [3]: < 50 nM
- GI50 [4]: < 50 nM
- IC50 [5]: < 50 nM
- IC50 [6]: < 50 nM

Compound: C[C@H]1CCOc2c(cnn2C)-c2nccc(n2)Nc2cc(c(-c3ccc(N(C)CCN(C)C)nc3)cn2)O1 [(138)]
- IC50 [1]: < 50 nM
- GI50 [2]: 50 to 100 nM
- GI50 [3]: < 50 nM
- GI50 [4]: 50 to 100 nM
- IC50 [5]: < 50 nM
- IC50 [6]: < 50 nM

Compound: C[C@H]1CCOc2c(cnn2C)-c2nccc(n2)Nc2cc(c(-c3cnn(C4CCNCC4)c3)cn2)O1 [(141)]
- IC50 [1]: < 50 nM
- GI50 [2]: < 50 nM
- GI50 [3]: < 50 nM
- GI50 [4]: < 50 nM
- IC50 [5]: < 50 nM
- IC50 [6]: < 50 nM

Compound: C[C@H]1CCOc2c(cnn2C)-c2nccc(n2)Nc2cc(c(-c3cc(CN4CCOCC4)n(C)n3)cn2)O1 [(144)]
- IC50 [1]: < 50 nM
- GI50 [2]: < 50 nM
- GI50 [3]: < 50 nM
- GI50 [4]: < 50 nM
- IC50 [5]: < 50 nM
- IC50 [6]: < 50 nM

Compound: COC(=O)c1cc(-c2cnc3cc2O[C@@H](C)CCOc2c(cnn2C)-c2nccc(n2)N3)n(C)c1 [(145)]
- IC50 [1]: < 50 nM
- GI50 [2]: 100 to 1000 nM
- GI50 [3]: 100 to 1000 nM
- GI50 [4]: 100 to 1000 nM
- IC50 [5]: < 50 nM
- IC50 [6]: 100 to 1000 nM

Compound: C[C@H]1CCOc2c(cnn2C)-c2nccc(n2)Nc2cc(c(-c3ccc(CN4CCN(C)CC4)c(OCC(F)(F)F)c3)cn2)O1 [(146)]
- IC50 [1]: < 50 nM
- GI50 [2]: < 50 nM
- GI50 [3]: < 50 nM
- GI50 [4]: < 50 nM
- IC50 [5]: < 50 nM
- IC50 [6]: < 50 nM

Compound: COc1cc(-c2cnc3cc2O[C@@H](C)CCOc2c(cnn2C)-c2nccc(n2)N3)ccc1CN1CCN(C)CC1 [(147)]
- IC50 [1]: < 50 nM
- GI50 [2]: < 50 nM
- GI50 [3]: < 50 nM
- GI50 [4]: < 50 nM
- IC50 [5]: < 50 nM
- IC50 [6]: < 50 nM

Compound: C[C@H]1CCOc2c(cnn2C)-c2nccc(n2)Nc2cc(c(-c3cccc(NCCN(C)C)c3)cn2)O1 [(148)]
- IC50 [1]: < 50 nM
- GI50 [2]: < 50 nM
- GI50 [3]: < 50 nM
- GI50 [4]: < 50 nM
- IC50 [5]: < 50 nM
- IC50 [6]: < 50 nM

Compound: COc1cc(CN2CCN(C)CC2)ccc1-c1cnc2cc1O[C@@H](C)CCOc1c(cnn1C)-c1nccc(n1)N2 [(149)]
- IC50 [1]: < 50 nM
- GI50 [2]: < 50 nM
- GI50 [3]: < 50 nM
- GI50 [4]: 50 to 100 nM
- IC50 [5]: < 50 nM
- IC50 [6]: < 50 nM

Compound: CCOc1cc(-c2cnc3cc2O[C@@H](C)CCOc2c(cnn2C)-c2nccc(n2)N3)ccc1CN1CCN(C)CC1 [(150)]
- IC50 [1]: < 50 nM
- GI50 [2]: < 50 nM
- GI50 [3]: < 50 nM
- GI50 [4]: < 50 nM
- IC50 [5]: < 50 nM
- IC50 [6]: < 50 nM
